Reference: PMC8920929 (The Journal of Biological Chemistry, 2022)
Substitutions are numbered along the chain they refer to. Values belong to the molecule of their own block, whether it stands above or below them.

How the values were obtained:
TRPV3 [1] = settings: ref [30], cited from earlier work; for TRPV3 currents induced: in comparison with carvacrol
mice = settings: ref [35]; cited from earlier work
human TRPV3 = biological target: T1, human TRPV3 (Homo sapiens, UniProt Q8NET8); experiment: Inside-out single channel recordings of TRPV3; type: biochemical
T1 sequence (Q8NET8 1-790): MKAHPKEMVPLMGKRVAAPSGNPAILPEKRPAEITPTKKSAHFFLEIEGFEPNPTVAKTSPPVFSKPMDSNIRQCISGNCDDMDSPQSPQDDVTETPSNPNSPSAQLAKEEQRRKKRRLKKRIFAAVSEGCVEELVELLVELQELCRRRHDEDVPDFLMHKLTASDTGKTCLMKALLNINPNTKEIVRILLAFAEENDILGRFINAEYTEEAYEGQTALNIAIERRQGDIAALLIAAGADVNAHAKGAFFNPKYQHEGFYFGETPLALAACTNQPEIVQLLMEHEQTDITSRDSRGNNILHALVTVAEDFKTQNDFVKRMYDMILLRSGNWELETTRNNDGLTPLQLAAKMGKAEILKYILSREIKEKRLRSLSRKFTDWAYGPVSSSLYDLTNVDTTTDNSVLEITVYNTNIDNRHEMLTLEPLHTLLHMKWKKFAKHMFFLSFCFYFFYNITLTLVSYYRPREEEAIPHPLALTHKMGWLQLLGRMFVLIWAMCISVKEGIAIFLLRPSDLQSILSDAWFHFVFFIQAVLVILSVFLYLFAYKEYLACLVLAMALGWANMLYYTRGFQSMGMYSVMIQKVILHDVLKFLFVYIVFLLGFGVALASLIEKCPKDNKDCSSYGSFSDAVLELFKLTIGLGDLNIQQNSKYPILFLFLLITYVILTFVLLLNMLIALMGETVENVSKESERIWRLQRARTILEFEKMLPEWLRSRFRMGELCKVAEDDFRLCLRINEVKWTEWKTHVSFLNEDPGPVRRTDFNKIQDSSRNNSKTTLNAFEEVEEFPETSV

keratinocytes = settings: ref [35]; cited from earlier work
TRPV3-L508A = biological target: T2, TRPV3-L508A (Homo sapiens, UniProt Q8NET8, L508A); experiment: Whole-cell and single-channel recordings of the TRPV3-L508A mutant; type: cell-based; settings: carvacrol 0.3-3.0 mM or 50 μM 2-APB
T2 sequence (Q8NET8 1-790 L508A): T1 sequence (Q8NET8 1-790) with L508A

TRPV3 [2] = settings: ref [38]; cited from earlier work
TRPV3-L508F = biological target: T3, TRPV3-L508F (Homo sapiens, UniProt Q8NET8, L508F); experiment: Whole-cell and single-channel recordings of the TRPV3-L508F mutant; type: cell-based; settings: carvacrol 0.3-3.0 mM or 50 μM 2-APB
T3 sequence (Q8NET8 1-790 L508F): T1 sequence (Q8NET8 1-790) with L508F

TRPV3-I505A = biological target: T4, TRPV3-I505A (Homo sapiens, UniProt Q8NET8, I505A); experiment: Whole-cell and single-channel recordings of the TRPV3-I505A mutant; type: cell-based; settings: carvacrol 0.3-3.0 mM or 50 μM 2-APB
T4 sequence (Q8NET8 1-790 I505A): T1 sequence (Q8NET8 1-790) with I505A

TRPV3-F524A = TRPV3-F524A (Homo sapiens, UniProt Q8NET8, F524A); settings: 50 μM 2-APB; the mutant also lost surface expression
Chain of TRPV3-F524A (Q8NET8 whole entry F524A): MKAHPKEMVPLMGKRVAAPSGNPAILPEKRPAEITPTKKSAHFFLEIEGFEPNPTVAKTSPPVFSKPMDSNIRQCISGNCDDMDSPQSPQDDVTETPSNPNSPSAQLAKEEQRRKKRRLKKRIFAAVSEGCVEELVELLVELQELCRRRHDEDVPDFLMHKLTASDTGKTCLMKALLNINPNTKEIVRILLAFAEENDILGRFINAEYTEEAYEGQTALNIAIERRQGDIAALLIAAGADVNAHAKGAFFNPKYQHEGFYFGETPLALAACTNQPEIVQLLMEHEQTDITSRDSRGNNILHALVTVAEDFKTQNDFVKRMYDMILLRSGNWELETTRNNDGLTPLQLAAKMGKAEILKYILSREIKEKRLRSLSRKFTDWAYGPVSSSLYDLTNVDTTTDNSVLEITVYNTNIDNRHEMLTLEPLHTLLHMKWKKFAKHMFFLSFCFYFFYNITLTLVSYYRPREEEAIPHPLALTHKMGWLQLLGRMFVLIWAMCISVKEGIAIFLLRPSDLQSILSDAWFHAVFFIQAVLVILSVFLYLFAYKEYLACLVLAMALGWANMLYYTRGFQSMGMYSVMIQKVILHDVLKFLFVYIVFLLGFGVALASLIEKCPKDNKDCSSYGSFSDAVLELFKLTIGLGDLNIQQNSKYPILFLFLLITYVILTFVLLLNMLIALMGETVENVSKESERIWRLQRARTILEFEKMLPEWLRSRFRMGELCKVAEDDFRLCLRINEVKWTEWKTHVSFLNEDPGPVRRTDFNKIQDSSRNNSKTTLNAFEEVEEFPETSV

[3] = FB 50 μM in the presence of 50 μM 2-APB, +80 mV
[4] = FB 50 μM in the presence of 300 μM carvacrol, +80 mV
[5] = +80 mV, carvacrol 300 μM or 2-APB 50 μM alone

Molecule: Cc1ccc(C(C)C)cc1 [p-Cymene]
TRPV3 currents induced (TRPV3 [1]): small or negligible

Po after addition of inhibitor, 2-APB-activated channels (human TRPV3; [3]): 0.12 ± 0.08 | open Freq after addition of inhibitor, 2-APB-activated channels (human TRPV3; [3]): 20.07 ± 1.77 Hz | Po after addition of inhibitor, carvacrol-activated channels (human TRPV3; [4]): 0.12 ± 0.03 | open Freq after addition of inhibitor, carvacrol-activated channels (human TRPV3; [4]): 21.78 ± 2.59 Hz
Molecule: forsythoside B [FB]
effect on carvacrol-induced pruritus (mice): attenuates pruritus | effect on carvacrol-induced cytotoxicity of keratinocytes (keratinocytes): attenuates

Molecule: CC12CCC(CC1=O)C2(C)C (stereo not drawn) [camphor]
EC50 (TRPV3 [1]; read-out: EC50, activation of TRPV3, [32]): ~6 mM

Molecule: Cc1ccc(C)c(O)c1 [p-Xylenol]
TRPV3 currents induced (TRPV3 [1]): small or negligible

activation of TRPV3 L508F mutant channel (TRPV3-L508F): but not 2-APB | activation of TRPV3 I505A mutant channel (TRPV3-I505A): intact activation | sensitivity of TRPV3 F524A mutant channel (TRPV3-F524A): reduced sensitivity | single-channel open frequency (Freq) (human TRPV3; [5]): 65.48 ± 12.31 Hz | single-channel open probability (Po) (human TRPV3; [5]): 0.77 ± 0.07 | unitary conductance of TRPV3 single channels (human TRPV3; inside-out patches, -80 mV to +80 mV, carvacrol 300 μM, 2-APB 50 μM, n = 4): 173.2 ± 5.3 pS
Molecule: NCCOB(c1ccccc1)c1ccccc1 [2-APB, 2-aminoethyl diphenylborinate]
activation of TRPV3 L508A mutant channel (TRPV3-L508A): still able to activate the mutant channel | unitary conductance, 2-APB in the absence of dyclonine (TRPV3 [2]): 163.6 ± 6.4 pS | unitary conductance, 2-APB in the presence of TRPV3 inhibitor dyclonine (TRPV3 [2]): 179.2 ± 5.5 pS
